# According to patent US9999656B2, “Treatment of short bowel syndrome patients with colon-in-continuity” (Shire-NPS Pharmaceuticals, Inc., priority 2004, dated 2018):
# What was measured:
# [1] = test system: patients with short bowel syndrome (SBS); assay: Safety monitoring (adverse events, laboratory, vital signs, ECGs, antibodies)
# Excerpt: During each inpatient period, patients underwent 72-hour nutrient balance and D-Xylose absorption studies, and a proximal or distal endoscopy to ascertain the condition of the intestinal mucosa and obtain biopsy samples. In jejunostomy patients, biopsies were obtained through the jejunostomy stoma or by upper gastrointestinal endoscopy. In patients with colon-in-continuity, colo-rectal biopsies were obtained. Teduglutide treatment began on Day 1 (immediately after the baseline period) and continued once-daily for 21 days. […] Patients were monitored for safety (adverse events, physical exams, vital signs, ECGs, laboratory results, and injection site examinations) during the inpatient periods and during outpatient visits on days 7 and 14.
# [2] = test system: intestinal mucosa of SBS patients; assay: Morphological analysis of intestinal biopsies (villus height, crypt depth, mitotic index); type: in vivo, human
# Method: Endoscopic examinations were performed in each subject at the completion of baseline, treatment and follow-up phases. All tissue samples for measurement of villus height and crypt depth were prepared and analyzed in a blinded fashion by the same pathologist. Villus height and crypt depth were measured using light microscopy (eyepiece micrometer) as the mean of ten well-oriented villi and crypts. The number of mitotic figures per 100 crypt epithelial cells was calculated.
# [3] = Body weight following teduglutide treatment; type: in vivo, human; conditions: not significant (p=0.120)
# [4] = Half-life / AUC (pharmacokinetics); type: in vivo
# Method: This greater effect could be related to differences in dose and half-life of GLP-2 and teduglutide, respectively. In the pilot study with native GLP-2, 400 μg was given twice daily (corresponding to 0.013±0.002 mg/kg/day, a range of 0.011-0.017 mg/kg/day). The teduglutide doses in the current study were 3-10 times higher, ranging from 0.03 to 0.15 mg/kg/day. […] If area under the curve (AUC) is critical for the wet weight absorption effect, the AUC during teduglutide treatment may well be 200 times greater than the AUC when using native GLP-2. In this study, effects of teduglutide on energy and macronutrient absorption were minor compared to effects on wet weight absorption. […] Nonetheless, the effect of teduglutide on absolute energy absorption is 1.5 to 4-fold higher than with native GLP-2 (441±634 kJ/day ([105±151 kcal/day] p=0.09) at the given doses and treatment periods. Thus, in contrast to H2-receptor antagonists, proton-pump inhibitors and octreotide that only affect wet weight absorption, native GLP-2 and teduglutide seem to affect both intestinal wet weight and energy absorption, with an additional positive effect on wet weight absorption in patients already treated with these non-GLP-2 agonists.
# [5] = jejunum / small intestine biopsies, Group 2 end-jejunostomy
structure (smiles),measurement,setting,value
"CC[C@H](C)[C@H](NC(=O)[C@H](Cc1ccccc1)NC(=O)[C@H](CC(=O)O)NC(=O)[C@H](CCCNC(=N)N)NC(=O)[C@H](C)NC(=O)[C@H](C)NC(=O)[C@H](CC(C)C)NC(=O)[C@H](CC(N)=O)NC(=O)[C@H](CC(=O)O)NC(=O)[C@H](CC(C)C)NC(=O)[C@@H](NC(=O)[C@@H](NC(=O)[C@H](CC(N)=O)NC(=O)[C@H](CCSC)NC(=O)[C@H](CCC(=O)O)NC(=O)[C@H](CC(=O)O)NC(=O)[C@H](CO)NC(=O)[C@H](Cc1ccccc1)NC(=O)[C@H](CO)NC(=O)CNC(=O)[C@H](CC(=O)O)NC(=O)CNC(=O)[C@@H](N)Cc1c[nH]cn1)[C@@H](C)O)[C@@H](C)CC)C(=O)N[C@@H](CC(N)=O)C(=O)N[C@@H](Cc1c[nH]c2ccccc12)C(=O)N[C@@H](CC(C)C)C(=O)N[C@H](C(=O)N[C@@H](CCC(N)=O)C(=O)N[C@H](C(=O)N[C@@H](CCCCN)C(=O)N[C@H](C(=O)N[C@H](C(=O)N[C@@H](CC(=O)O)C(=O)O)[C@@H](C)O)[C@@H](C)CC)[C@@H](C)O)[C@@H](C)CC [teduglutide, [Gly2]hGLP-2]",antibodies to teduglutide,"[1]; SBS patients, 21 days dosing",No antibodies to teduglutide were detected
same,deaths and withdrawals due to adverse events,[1]; all patients,no deaths and no withdrawals due to adverse events
same,injection site reactions,[1]; in vivo,Three patients had minor injection site reactions
same,laboratory values,[1]; in vivo,No clinically significant abnormal laboratory values
same,most common AEs,[1]; in vivo,"edema of the lower limbs, and localized swelling of the jejunostomy nipple"
same,"relation of serious AEs (catheter-related infection or complication, two patients) to drug",[1]; in vivo,None of these were judged to be related to teduglutide
same,vital signs or ECGs,[1]; in vivo,No safety concerns were raised
same,sets of colonic biopsies with increased crypt depth,[2]; Group 3 colon-in-continuity,four of five
same,increase in mitotic index (colonic biopsies),"[2]; colonic biopsies, Group 3 colon-in-continuity, not significant (p=0.170)",76±112%
same,mean increase in colonic crypt depth,"[2]; colonic biopsies, Group 3 colon-in-continuity, not significant (p=0.330)",13±22%
same,increase in crypt depth,[2]; [5],22±18%
same,increase in mitotic index,[2]; [5],115±108%
same,increase in villus height,[2]; [5],38±45%
same,number of patients with significant histological changes in the jejunum,[2]; of the 8 Group 2 patients who were biopsied,7
same,increase in body weight following teduglutide treatment,[3],0.9 ± 2.1 kg
same,AUC during teduglutide treatment relative to AUC using native GLP-2,"[4]; 'may well be', estimate",~200 times
same,half-life,"[4]; human, plasma, teduglutide, approximately",0.9 to 2.3 h
